# In patent US8664220B2, “Polycyclic compounds as lysophosphatidic acid receptor antagonists” (Amira Pharmaceuticals, Inc., priority 2009, dated 2014):
# pIC50: −log10 of the molar value.
# Biological target: T1, human LPA1 (Homo sapiens, UniProt Q92633)
# T1 construct: the full-length cDNA for human LPA1 was obtained by PCR of the reverse transcription reaction; expressed in transfected cells
# Test: LPA1 calcium flux assay
# Format: cell-based
# Conditions: human LPA1 expressing CHO cells, stimulated with 10 nM LPA; read-out: HLPA1 Ca Flux IC50
# Method in brief: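 CHO cells stably expressing human LPA1, serum-starved overnight and loaded with Calcium 4 dye in HBSS/20 mM Hepes/0.3% fatty-acid-free HSA, 1 h at 37 °C. Compounds pre-incubated 30 min at room temperature, then 10 nM LPA added; intracellular Ca2+ flux measured and IC50 from titration curves.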
# T1 sequence (Q92633 whole entry): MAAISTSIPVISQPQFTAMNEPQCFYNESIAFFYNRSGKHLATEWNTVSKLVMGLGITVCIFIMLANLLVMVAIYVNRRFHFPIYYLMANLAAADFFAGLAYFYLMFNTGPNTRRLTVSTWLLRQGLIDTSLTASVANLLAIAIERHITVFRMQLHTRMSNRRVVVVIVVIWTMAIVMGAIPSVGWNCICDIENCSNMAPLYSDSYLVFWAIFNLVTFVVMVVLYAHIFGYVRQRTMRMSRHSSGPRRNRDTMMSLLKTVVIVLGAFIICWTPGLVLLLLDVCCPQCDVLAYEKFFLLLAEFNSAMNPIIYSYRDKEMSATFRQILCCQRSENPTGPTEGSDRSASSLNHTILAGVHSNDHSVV
row,Structure (SMILES),pIC50
1,"Cc1noc(-c2ccc(-c3ccc(C4(C(=O)NS(C)(=O)=O)CC4)cc3)cc2)c1C(O)c1cn(Cc2cccc(C(F)(F)F)c2)nn1 (stereo not shown) [Compound 3-3, N-{1-[4′-(4-{Hydroxy-[1-(3-trifluoromethyl-benzyl)-1H-[1,2,3]triazol-4-yl]-methyl}-3-methyl-isoxazol-5-yl)-biphenyl-4-yl]-cyclopropanecarbonyl}-methanesulfonamide]",4.30 to 6.00
2,"Cc1noc(-c2ccc(-c3ccc(C4(C(=O)O)CC4)cc3)cc2)c1Nc1cncc(-c2ccc(C(F)(F)F)cc2)c1 [Compound 1-119, 1-(4′-{3-Methyl-4-[5-(4-trifluoromethyl-phenyl)-pyridin-3-ylamino]-isoxazol-5-yl}-biphenyl-4-yl)-cyclopropanecarboxylic acid]",> 6.52
3,"Cc1noc(-c2ccc(-c3ccc(C4(C(=O)O)CC4)cc3)cc2)c1Nc1cccc(-c2cccc(F)c2F)n1 [Compound 1-152, 1-(4′-{4-[6-(2,3-Difluoro-phenyl)-pyridin-2-ylamino]-3-methyl-isoxazol-5-yl}-biphenyl-4-yl)-cyclopropanecarboxylic acid]",> 6.52
4,"Cc1noc(-c2ccc(-c3ccc(C4(C(=O)O)CC4)cc3)cc2)c1Nc1ccnc(-c2cccc(F)c2)c1 [Compound 1-112, 1-(4′-{4-[2-(3-Fluoro-phenyl)-pyridin-4-ylamino]-3-methyl-isoxazol-5-yl}-biphenyl-4-yl)-cyclopropanecarboxylic acid]",4.30 to 6.00
5,"Cc1noc(-c2ccc(-c3ccc(C4(CC(=O)O)CC4)cc3)cc2)c1C(O)c1nnc(-c2ccccc2)o1 (stereo not shown) [Compound 1-39, [1-(4′-{4-[Hydroxy-(5-phenyl-[1,3,4]oxadiazol-2-yl)-methyl]-3-methyl-isoxazol-5-yl}-biphenyl-4-yl)-cyclopropyl]-acetic acid]",> 6.52
6,"Cc1noc(-c2ccc(-c3ccc(C4(CC(=O)O)CC4)cc3)cc2)c1NC(C)c1cc(-c2ccccc2)no1 (single isomer, unassigned) [Compound 1-44, [1-(4′-{3-Methyl-4-[1-(3-phenyl-isoxazol-5-yl)-ethylamino]-isoxazol-5-yl}-biphenyl-4-yl)-cyclopropyl]-acetic acid]",> 6.52
7,"Cc1noc(-c2ccc(-c3ccc(C4(C(=O)O)CC4)cc3)cc2)c1Nc1cccc(C(=O)N2CCCC2)n1 [Compound 1-136, 1-(4′-{3-Methyl-4-[6-(pyrrolidine-1-carbonyl)-pyridin-2-ylamino]-isoxazol-5-yl}-biphenyl-4-yl)-cyclopropanecarboxylic acid]",> 6.52
8,"Cc1noc(-c2ccc(-c3ccc(C4(CC(=O)O)CC4)cc3)cc2)c1C(O)CCCc1ccc(Cc2ccccc2)cc1 (stereo not shown) [Compound 1-32, [1-(4′-{4-[4-(4-Benzyl-phenyl)-1-hydroxy-butyl]-3-methyl-isoxazol-5-yl}-biphenyl-4-yl)-cyclopropyl]-acetic acid]",4.30 to 6.00
9,"Cc1noc(-c2ccc(-c3ccc(CC(=O)O)cc3)cc2)c1C(O)c1cn(Cc2cccc(C(F)(F)F)c2)nn1 (stereo not shown) [Compound 1-51, [4′-(4-{Hydroxy-[1-(3-trifluoromethyl-benzyl)-1H-[1,2,3]triazol-4-yl]-methyl}-3-methyl-isoxazol-5-yl)-biphenyl-4-yl]acetic acid]",< 4.30
10,"Cc1noc(-c2ccc(-c3ccc(C4(C(=O)O)CC4)cc3)cc2)c1Nc1cncc(-c2cccc(Cl)c2)c1 [Compound 1-160, 1-(4′-{4-[5-(3-Chloro-phenyl)-pyridin-3-ylamino]-3-methyl-isoxazol-5-yl}-biphenyl-4-yl)-cyclopropanecarboxylic acid]",> 6.52
11,"Cc1noc(-c2ccc(-c3ccc(C4(C(=O)O)CC4)cc3)cc2)c1Nc1cccc(N2CCOC2=O)n1 [Compound 1-143, 1-(4′-{3-Methyl-4-[6-(2-oxo-oxazolidin-3-yl)-pyridin-2-ylamino]-isoxazol-5-yl}-biphenyl-4-yl)-cyclopropanecarboxylic acid]",> 6.52
12,"Cc1noc(-c2ccc(-c3ccc(C4(C(=O)O)CC4)cc3)cc2)c1Nc1cncc(-c2cccc(F)c2Cl)c1 [Compound 1-155, 1-(4′-{4-[5-(2-Chloro-3-fluoro-phenyl)-pyridin-3-ylamino]-3-methyl-isoxazol-5-yl}-biphenyl-4-yl)-cyclopropanecarboxylic acid]",> 6.52

# Continued, values first:
row,pIC50,Structure (SMILES)
1,> 6.52,"Cc1noc(-c2ccc(-c3ccc(C4(C(=O)O)CC4)cc3)cc2)c1Cn1cc(Cc2ccccc2)nn1 [Compound 1-9, 1-{4′-[4-(4-Benzyl-[1,2,3]triazol-1-ylmethyl)-3-methyl-isoxazol-5-yl]-biphenyl-4-yl}-cyclopropanecarboxylic acid]"
2,> 6.52,"Cc1noc(-c2ccc(-c3ccc(C4(C(=O)O)CC4)cc3)cc2)c1Nc1cccc(-c2ccccc2C(F)(F)F)n1 [Compound 1-96, 1-(4′-{3-methyl-4-[6-(2-trifluoromethyl-phenyl)-pyridin-2-ylamino]-isoxazol-5-yl}-biphenyl-4-yl)-cyclopropanecarboxylic acid]"
3,> 6.52,"Cc1noc(-c2ccc(-c3ccc(C4(C(=O)O)CC4)cc3)cc2)c1C(O)c1cccc(-c2ccccc2)c1 (stereo not shown) [Compound 1-53, 1-{4′-[4-(Biphenyl-3-yl-hydroxy-methyl)-3-methyl-isoxazol-5-yl]-biphenyl-4-yl}-cyclopropanecarboxylic acid]"
4,> 6.52,"Cc1noc(-c2ccc(-c3ccc(C4(C(=O)O)CC4)cc3)cc2)c1Nc1cncc(-c2ccccc2)c1 [Compound 1-107, 1-{4′-[3-Methyl-4-(5-phenyl-pyridin-3-ylamino)-isoxazol-5-yl]-biphenyl-4-yl}-cyclopropanecarboxylic acid]"
5,> 6.52,"Cc1noc(-c2ccc(-c3ccc(C4(C(=O)O)CC4)cc3)cc2)c1Cc1nnc(Cc2ccccc2)o1 [Compound 1-29, 1-{4′-[4-(5-Benzyl-[1,3,4]oxadiazol-2-ylmethyl)-3-methyl-isoxazol-5-yl]-biphenyl-4-yl}-cyclopropanecarboxylic acid]"
6,4.30 to 6.00,"Cc1noc(-c2ccc(-c3ccc(C4(C(=O)O)CC4)cc3)cc2)c1Cn1ccc(-c2ccc(Br)cc2)n1 [Compound 1-13, 1-(4′-{4-[3-(4-Bromo-phenyl)-pyrazol-1-ylmethyl]-3-methyl-isoxazol-5-yl}-biphenyl-4-yl)-cyclopropanecarboxylic acid]"
7,> 6.52,"Cc1noc(-c2ccc(-c3ccc(C4(C(=O)O)CC4)cc3)cc2)c1CN1C(=O)O[C@H](c2ccccc2)[C@@H]1C [Compound 1-16, 1-{4′-[3-Methyl-4-((4S,5R)-4-methyl-2-oxo-5-phenyl-oxazolidin-3-ylmethyl)-isoxazol-5-yl]-biphenyl-4-yl}-cyclopropanecarboxylic acid]"
8,> 6.52,"Cc1noc(-c2ccc(-c3ccc(C4(C(=O)O)CC4)cc3)cc2)c1Cn1nnc(-c2ccccc2)n1 [Compound 1-21, 1-{4′-[3-Methyl-4-(5-phenyl-tetrazol-2-ylmethyl)-isoxazol-5-yl]-biphenyl-4-yl}-cyclopropanecarboxylic acid]"
9,6.00 to 6.52,"Cc1noc(-c2ccc(-c3ccc(C4(C(=O)O)CC4)cc3)cc2)c1Cn1nncc1-c1ccccc1 [Compound 1-20, 1-{4′-[3-Methyl-4-(5-phenyl-[1,2,3]triazol-1-ylmethyl)-isoxazol-5-yl]-biphenyl-4-yl}-cyclopropanecarboxylic acid]"
10,> 6.52,"Cc1noc(-c2ccc(-c3ccc(C4(C(=O)O)CC4)cc3)cc2)c1C1CN(Cc2ccccc2)C(=O)O1 (stereo not shown) [Compound 1-28, 1-{4′-[4-(3-Benzyl-2-oxo-oxazolidin-5-yl)-3-methyl-isoxazol-5-yl]-biphenyl-4-yl}-cyclopropanecarboxylic acid]"
